Source: article PMC7235904, “Is Blood a Good Indicator for Detecting Antimicrobials in Meat? Evidence for the Development of In Vivo Surveillance Methods” (Antibiotics, 2020)
Like-named read-outs stand apart in the source and are kept apart here. Marks after values point to notes of the source that are not given here.

What was measured:
[1] = Antimicrobial residue concentration and depletion in muscle of treated pigs within the withdrawal period (LC-MS/MS or HPLC-FLD); assay type: in vivo; details: for concentration at 2 day of withdrawal period / half-life / concentration at 3 day of withdrawal period / concentration at 4 day of withdrawal period / concentration at 7 day of withdrawal period / concentration at 15 day of withdrawal period: intramuscular; for concentration at 2 day of withdrawal period: withdrawal period Day 2, pig; for Maximum concentration value in Muscle / Minimum concentration value in Muscle: over the sample bank of treated piglets; for half-life: both sexes, T1/2=Ln(2)/λz, read-out: T1/2 half-life of elimination (MUSCLE) (converted); for concentration at 3 day of withdrawal period: withdrawal period Day 3, pig; for Time until levels reached the detection limit (DL) in muscle: DL 10 µg/kg; for Slope (MUSCLE): regression of concentration over the withdrawal period, deep intramuscular treatment; for concentration at 4 day of withdrawal period: withdrawal period Day 4, pig; for concentration at 7 day of withdrawal period: withdrawal period Day 7, pig; for concentration at 15 day of withdrawal period: withdrawal period Day 15, pig
Description: To obtain samples containing antimicrobial compounds administered in vivo, 93 piglets (62 female, 31 male) with an average weight of 43.00 ± 12.79 kg were provided at treatment onset. These piglets were untreated animals that remained on the premises of the Faculty of Veterinary Sciences at the University of Zaragoza (Zaragoza, Spain) 40 days before administration of the compounds. Both during the acclimatization and withdrawal periods, animals were fed ad libitum with a special mixed feed that was free of antibiotics ([…], Spain), and water was provided from a separated, controlled water circuit. Piglets were raised in separate pens depending on the antibiotic administrated. After administration, animals were slaughtered at preset intervals within the withdrawal period in order to obtain samples containing different antimicrobial concentrations above and below the MRLs for muscle. Figure S1 indicates the slaughter days and the withdrawal periods set by the manufacturer for each antimicrobial compound administered. Between one and three piglets were slaughtered on the same day post-administration. The day of slaughter was calculated from the first day after the last antimicrobial treatment dose. […] Apart from samples containing antimicrobial compounds administered in vivo, and as a part of the sample bank, 15 of the 93 piglets were slaughtered after the acclimatization period and before treatment onset. Animals were stunned and slaughtered following the guidelines established by European Council Regulation (EC) No. 1099/2009 [39] regarding the protection of animals at the time of slaughter or killing. A penetrative captive bolt gun was used to stun the pigs, positioning it firmly against the skin, in the middle of the forehead, 2 cm above the line of the eyes, aiming towards the tail. This was followed by complete exsanguination carried out by incision in the jugular furrow at the base of the neck to sever all the major blood vessels arising from the heart. The samples obtained from them were used as blank samples for analysis. […] Samples were immediately frozen at -20 °C until analysis. For HPLC-FLD analyses, matrix solid phase dispersion (MSPD) was used. A total of 1.00 ± 0.01 g of tissue was weighed. Internal quality control samples were spiked at this point. […] It was introduced into a 25 mL reservoir and compacted. Clean-up was made with 8 mL of hexane, and quinolones were eluted with 15 mL acetonitrile/methanol (1:1) acidified with acetic acid 1%. […] The extraction procedure for LC-MS/MS determination was based on Chico et al.. […] All samples were spiked with IS at this point, and calibrants and internal quality control samples were prepared by spiking the corresponding amount of standard working solution. A total of 200 μL of 0.1 M EDTA was added, followed by 10 mL of 70% methanol, and samples were vortexed for 30 s, swung for 15 min, and finally centrifuged at 4500 rcf for 10 min at a temperature below 10 °C (Heraeus Multifuge X3 FR, Heraeus, Hanau, Germany). Then, 500 μL of supernatant was collected and diluted by adding 1500 μL of water. Extracts were filtered through 0.2 μm pore filters directly into LC-MS/MS vials. […] Mobile phase consisted of eluent A: phosphoric acid with trimethylamine buffer (pH = 3), and eluent B: acetonitrile, in isocratic mode (21:79) with a flow rate of 1 mL/min. Injected volume was 50 μL. […] The same mobile phase and gradient conditions as in SCIEX instruments were applied. Injected volume was 10 μL. Two ESI+ MRM transitions were monitored for each compound (Table S5). […] Results were represented as the mean ± standard deviation using the PRISM program (GraphPad Software, Inc., San Diego, USA). The rates of elimination (λz) of antibiotics from muscle and blood were determined by regression analysis. […]

[2] = cited from earlier work; for Suppression Period (withdrawal period set by the manufacturer): commercial product, deep intramuscular, ref manufacturer; for MRLs: muscle, ref Regulation (EEC) No. 2377/90
[3] = Antimicrobial residue concentration and depletion in blood (serum) of treated pigs within the withdrawal period (LC-MS/MS); assay type: in vivo; details: for Maximum concentration value in Blood / Minimum concentration value in Blood: over the sample bank of treated piglets; for half-life: both sexes, intramuscular, T1/2=Ln(2)/λz, read-out: T1/2 half-life of elimination (BLOOD) (converted); for half-life / Slope (BLOOD): pig blood serum; for Slope (BLOOD): regression of concentration over the withdrawal period, deep intramuscular treatment; for Time until levels reached the detection limit (DL) in blood: DL 10 µg/kg
Description: To obtain samples containing antimicrobial compounds administered in vivo, 93 piglets (62 female, 31 male) with an average weight of 43.00 ± 12.79 kg were provided at treatment onset. These piglets were untreated animals that remained on the premises of the Faculty of Veterinary Sciences at the University of Zaragoza (Zaragoza, Spain) 40 days before administration of the compounds. Both during the acclimatization and withdrawal periods, animals were fed ad libitum with a special mixed feed that was free of antibiotics ([…], Spain), and water was provided from a separated, controlled water circuit. Piglets were raised in separate pens depending on the antibiotic administrated. After administration, animals were slaughtered at preset intervals within the withdrawal period in order to obtain samples containing different antimicrobial concentrations above and below the MRLs for muscle. Figure S1 indicates the slaughter days and the withdrawal periods set by the manufacturer for each antimicrobial compound administered. Between one and three piglets were slaughtered on the same day post-administration. The day of slaughter was calculated from the first day after the last antimicrobial treatment dose. […] Apart from samples containing antimicrobial compounds administered in vivo, and as a part of the sample bank, 15 of the 93 piglets were slaughtered after the acclimatization period and before treatment onset. Animals were stunned and slaughtered following the guidelines established by European Council Regulation (EC) No. 1099/2009 [39] regarding the protection of animals at the time of slaughter or killing. A penetrative captive bolt gun was used to stun the pigs, positioning it firmly against the skin, in the middle of the forehead, 2 cm above the line of the eyes, aiming towards the tail. This was followed by complete exsanguination carried out by incision in the jugular furrow at the base of the neck to sever all the major blood vessels arising from the heart. The samples obtained from them were used as blank samples for analysis. Blood was collected not only from slaughtered animals, but also from living animals on each day of slaughter. […] For quinolones in blood serum samples, a LC-MS/MS method was set up using a SCIEX Exion LC coupled to TripleQuad 6500+ triple quadrupole detector equipped with an Acquity Ultra Performance Liquid Chromatography Ethylene Bridged Hybrid (UPLC BEH) C18 (1.7 μm, 2.1 × 100 mm) column. Mobile phase consisted of eluent A: 0.1% formic acid in water, and eluent B: 0.1% formic acid in acetonitrile at a flow rate of 0.4 mL/min. […] Injected volume was 5 μL. Analytes were detected using positive electrospray ionization (ESI+) in multiple reaction monitoring (MRM) mode, and two transitions were monitored for each compound of interest (Table S4). […] The same mobile phase and gradient conditions as in SCIEX instruments were applied. […] Two ESI+ MRM transitions were monitored for each compound (Table S5). […] Results were represented as the mean ± standard deviation using the PRISM program (GraphPad Software, Inc., San Diego, USA). The rates of elimination (λz) of antibiotics from muscle and blood were determined by regression analysis. The corresponding half-lives of elimination were calculated according to the following equation: Half-life of elimination.

[4] = parameters: method as in earlier work; details: cited from earlier work
[5] = forequarter muscle, read-out: Concentration in Forequarters
[6] = hindquarter muscle, read-out: Concentration in Hindquarters
[7] = loin muscle, read-out: Concentration in Loins

concentration at 2 day of withdrawal period [1, 5] [ng/g]	concentration at 2 day of withdrawal period [1, 6] [ng/g]	concentration at 2 day of withdrawal period [1, 7] [ng/g]	Maximum concentration value in Muscle [1] [µg/kg]	Minimum concentration value in Muscle [1] [µg/kg]	Maximum concentration value in Blood [3] [µg/kg]	Minimum concentration value in Blood [3] [µg/kg]	half-life ([1]; pig muscle) [h]	Time until levels reached the detection limit (DL) in muscle ([1]; pig muscle) [days after inoculation]	Slope (MUSCLE) ([1]; pig muscle)	half-life [3] [h]	Slope (BLOOD) [3]	Time until levels reached the detection limit (DL) in blood ([3]; pig blood) [days after inoculation]	SMILES	Suppression Period (withdrawal period set by the manufacturer) [2] [days]	MRLs [2] [µg/kg]	also measured
20.7 ± 1.15	25.3 ± 6.43	149 ± 8.54	307.00 ± 10.39	13.33 ± 2.52	73.00 ± 6.24	19.00 ± 1.00							CC1(C)S[C@@H]2[C@H](NC(=O)[C@H](N)c3ccc(O)cc3)C(=O)N2[C@H]1C(=O)O [Amoxicillin, amoxicillin]	25	50	Concentration in loins compared with forequarters and hindquarters ([1]; pig muscle groups, Table S1): over seven times higher; Time at which muscle amounts were close to the MRL ([1]; pig muscle, MRL 50 µg/kg): first day of the withdrawal period; Time at which blood amounts were close to the MRL ([3]; pig blood, MRL 50 µg/kg): first day of the withdrawal period
374 ± 4.73	387 ± 8.5	383 ± 2	1858.00 ± 156.37	18.00 ± 2.65	448.50 ± 2.12	21.67 ± 1.15	22.1	7	−0.3289 ± 0.01929 ^a	45.6	−0.2213 ± 0.01639 ^b	8	CCN1CCN(c2cc3c(cc2F)c(=O)c(C(=O)O)cn3C2CC2)CC1 [Enrofloxacin, enrofloxacin]			concentration at 3 day of withdrawal period [1, 5]: 990.5 ± 3.54 ng/g; concentration at 3 day of withdrawal period [1, 6]: 1075 ± 1.41 ng/g; concentration at 3 day of withdrawal period [1, 7]: 1060 ± 2.12 ng/g
			1005.33 ± 55.47	31.33 ± 3.21	615.00 ± 204.47	24.00 ± 1.73	82.3	26	−0.08784 ± 0.005403 ^a	86.2	−0.08879 ± 0.007069 ^a	25	CN(C)[C@@H]1C(O)=C(C(N)=O)C(=O)[C@@]2(O)C(O)=C3C(=O)c4c(O)cccc4[C@@](C)(O)[C@H]3[C@H](O)[C@@H]12 [Oxytetracycline, oxytetracycline]	28	100	concentration at 4 day of withdrawal period [1, 5]: 971 ± 53.3 ng/g; concentration at 7 day of withdrawal period [1, 5]: 411 ± 27.5 ng/g; concentration at 15 day of withdrawal period [1, 5]: 99.7 ± 6.51 ng/g; concentration at 4 day of withdrawal period [1, 6]: 1010 ± 55.5 ng/g; concentration at 7 day of withdrawal period [1, 6]: 383 ± 45.9 ng/g; concentration at 15 day of withdrawal period [1, 6]: 100 ± 16 ng/g; concentration at 4 day of withdrawal period [1, 7]: 905 ± 118 ng/g; concentration at 7 day of withdrawal period [1, 7]: 383 ± 12.9 ng/g; concentration at 15 day of withdrawal period [1, 7]: 125 ± 15.7 ng/g; Share of the dose eliminated in the feces [4]: 40%; Share of the dose eliminated in urine via glomerular filtration [4]: 60%
